# Assay results published in publication PMC11079024, “Identification of a family of species-selective complex I inhibitors as potential anthelmintics” (Nature Communications, 2024).
# Several values for one entry are separate records, joined by “and”; a condition that tells them apart may be missing. Identical values can stand only once. Like-named read-outs stand apart in the source and are kept apart here.
# What was measured:
# [1] = system: ben-1 mutant (ECA882) C. elegans; assay: microbe, parasite or virus in culture; conditions: Caenorhabditis elegans, read-out: C. elegans (ben-1) Development & Viability Assay LC50
# In short: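 Development and viability scored from single well images as total worm pixels divided by the matching DMSO control value, mean of ≥3 replicates. Worms added as synchronized L1s to HB101 suspension in liquid NGM with compound (1% DMSO v/v), grown 6 days at 20 °C with shaking.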
# [2] = target: B. taurus (heart) complex I (Bos taurus, UniProt P03887+P17694+P42026); assay: biochemical; format: biochemical; conditions: for IC50: read-out: B. taurus Complex I IC50
# Sequence of B. taurus (heart) complex I (P03887 whole entry): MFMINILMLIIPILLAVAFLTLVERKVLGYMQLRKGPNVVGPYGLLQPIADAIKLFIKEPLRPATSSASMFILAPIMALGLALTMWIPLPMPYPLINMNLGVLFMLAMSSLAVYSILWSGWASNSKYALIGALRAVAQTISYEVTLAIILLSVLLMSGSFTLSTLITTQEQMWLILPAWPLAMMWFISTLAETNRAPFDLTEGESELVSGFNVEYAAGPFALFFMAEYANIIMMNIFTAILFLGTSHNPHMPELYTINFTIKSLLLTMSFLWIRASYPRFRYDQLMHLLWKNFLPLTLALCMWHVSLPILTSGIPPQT
# Sequence of B. taurus (heart) complex I (P17694 34-463): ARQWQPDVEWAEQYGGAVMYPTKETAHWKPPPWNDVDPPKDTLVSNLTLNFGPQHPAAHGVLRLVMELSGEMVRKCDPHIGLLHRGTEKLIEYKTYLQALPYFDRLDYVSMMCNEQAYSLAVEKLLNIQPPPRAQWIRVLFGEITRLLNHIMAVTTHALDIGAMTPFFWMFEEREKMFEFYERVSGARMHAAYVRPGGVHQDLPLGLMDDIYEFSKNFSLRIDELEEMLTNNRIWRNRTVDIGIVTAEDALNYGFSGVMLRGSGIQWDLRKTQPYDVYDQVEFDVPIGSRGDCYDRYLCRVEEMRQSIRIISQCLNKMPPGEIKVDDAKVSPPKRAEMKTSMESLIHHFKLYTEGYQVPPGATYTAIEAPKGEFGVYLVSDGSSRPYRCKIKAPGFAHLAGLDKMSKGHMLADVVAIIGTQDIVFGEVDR
# Sequence of B. taurus (heart) complex I (P42026 38-216): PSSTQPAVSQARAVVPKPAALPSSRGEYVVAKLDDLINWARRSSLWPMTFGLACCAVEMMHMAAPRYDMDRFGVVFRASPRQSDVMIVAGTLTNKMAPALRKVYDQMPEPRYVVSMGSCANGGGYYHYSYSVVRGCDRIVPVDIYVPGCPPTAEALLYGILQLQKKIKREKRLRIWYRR
# In short: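 Complex I activity followed as DCIP reduction (600 nm, 30 s reads, 15 min) with 80 μM NADH and 60 μM decylubiquinone in 25 mM KPi pH 7.5 containing 2 μM antimycin A and 2 mM KCN. Freeze-thawed mouse or bovine heart mitochondria at 0.2 mg/mL; initial-rate percent of solvent control, single-point 100 μM or dose-response.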
# L1 wild-type C. elegans = assay: whole plant or invertebrate; conditions: Caenorhabditis elegans, 15 h, read-out: C. elegans KCN Survival Assay LC50
# in vitro = conditions: human; for viability: HEK293 viability
# [3] = B. taurus (heart) mitochondria, mean of replicates, read-out: percent (%) in vitro complex I activity relative to solvent control
# [4] = B. taurus (heart) mitochondria, single replicate, read-out: percent (%) in vitro complex I activity relative to solvent control
# [5] = B. taurus (heart) mitochondria, Mean of replicates, read-out: in vitro complex I activity relative to solvent control
# [6] = B. taurus (heart) mitochondria, single replicate, read-out: in vitro complex I activity relative to solvent control
compound,measurement,setting,value
CC(C)Cc1ccc(C(C)c2nc3ccccc3n2C)cc1 (stereo not shown) [NPD8790],LC50,[1],> 1 mM
same,remaining activity at 0.125 µM,"[2]; 0.125 µM, B. taurus (heart) mitochondria, mean of replicates, read-out: percent (%) in vitro complex I activity relative to solvent control",101%
same,remaining activity at 0.313 µM,[2]; [3],112%
same,remaining activity at 0.313 µM,[2]; [4],118%
same,remaining activity at 0.625 µM,[2]; [3],103%
same,remaining activity at 0.625 µM,[2]; [4],96.1%
same,remaining activity at 1.5 µM,[2]; [3],107%
same,remaining activity at 3 µM,[2]; [3],104%
same,remaining activity at 15 µM,[2]; [3],79.4%
same,remaining activity at 37.5 µM,[2]; [3],38%
same,remaining activity at 37.5 µM,[2]; [4],38.8%
same,remaining activity at 75 µM,[2]; [3],13.6%
same,remaining activity at 0.06 µM,"[2]; B. taurus (heart) mitochondria, 0.06 µM, Mean of replicates, read-out: in vitro complex I activity relative to solvent control",103%
same,remaining activity at 0.13 µM,"[2]; B. taurus (heart) mitochondria, 0.13 µM, Mean of replicates, read-out: in vitro complex I activity relative to solvent control",101%
same,remaining activity at 0.313 µM,[2]; [5],112%
same,remaining activity at 0.313 µM,[2]; [6],118%
same,remaining activity at 0.625 µM,[2]; [5],103%
same,remaining activity at 0.625 µM,[2]; [6],96.1%
same,remaining activity at 1.5 µM,[2]; [5],107%
same,remaining activity at 3 µM,[2]; [5],104%
same,remaining activity at 15 µM,[2]; [5],79.4%
same,remaining activity at 37.5 µM,[2]; [5],38%
same,remaining activity at 37.5 µM,[2]; [6],38.8%
same,remaining activity at 75 µM,[2]; [5],13.6%
same,IC50,[2]; B. taurus heart mitochondria,27.2 µM
same,activity at 0.0001 µM,"[2]; B. taurus, dose 0.0001 µM, Mean of replicates, read-out: Complex I activity, dose-response data",104%
same,"Complex I activity, dose-response data","[2]; B. taurus, dose 0.0001 µM, individual replicates (Rep)",106.495 and 102.513 and 108.647
same,activity at 0.0001 µM,"[2]; B. taurus, dose 0.0001 µM, individual replicates (Rep), read-out: Complex I activity, dose-response data",97.6%
same,activity at 0.0005 µM,"[2]; B. taurus, dose 0.0005 µM, Mean of replicates, read-out: Complex I activity, dose-response data",101%
same,"Complex I activity, dose-response data","[2]; B. taurus, dose 0.0005 µM, individual replicates (Rep)",104.650 and 93.657 and 105.597
same,activity at 0.0005 µM,"[2]; B. taurus, dose 0.0005 µM, individual replicates (Rep), read-out: Complex I activity, dose-response data",99.4%
same,activity at 0.001 µM,"[2]; B. taurus, dose 0.001 µM, Mean of replicates, read-out: Complex I activity, dose-response data",105%
same,"Complex I activity, dose-response data","[2]; B. taurus, dose 0.001 µM, individual replicates (Rep)",106.670 and 104.354 and 107.534
same,activity at 0.001 µM,"[2]; B. taurus, dose 0.001 µM, individual replicates (Rep), read-out: Complex I activity, dose-response data",103%
same,activity at 0.0025 µM,"[2]; B. taurus, dose 0.0025 µM, Mean of replicates, read-out: Complex I activity, dose-response data",104%
same,"Complex I activity, dose-response data","[2]; B. taurus, dose 0.0025 µM, individual replicates (Rep)",99.492 and 117.130 and 91.896 and 108.464
same,activity at 0.005 µM,"[2]; B. taurus, dose 0.005 µM, Mean of replicates, read-out: Complex I activity, dose-response data",114%
same,"Complex I activity, dose-response data","[2]; B. taurus, dose 0.005 µM, individual replicates (Rep)",112.174 and 127.690 and 101.653 and 112.765
same,activity at 0.013 µM,"[2]; B. taurus, dose 0.013 µM, Mean of replicates, read-out: Complex I activity, dose-response data",99.8%
same,"Complex I activity, dose-response data","[2]; B. taurus, dose 0.013 µM, individual replicates (Rep)",108.528 and 89.880 and 103.599
same,activity at 0.013 µM,"[2]; B. taurus, dose 0.013 µM, individual replicates (Rep), read-out: Complex I activity, dose-response data",97.2%
same,activity at 0.025 µM,"[2]; B. taurus, dose 0.025 µM, Mean of replicates, read-out: Complex I activity, dose-response data",101%
same,"Complex I activity, dose-response data","[2]; B. taurus, dose 0.025 µM, individual replicates (Rep)",88.122 and 92.313 and 109.456
same,activity at 0.063 µM,"[2]; B. taurus, dose 0.063 µM, Mean of replicates, read-out: Complex I activity, dose-response data",103%
same,"Complex I activity, dose-response data","[2]; B. taurus, dose 0.063 µM, individual replicates (Rep)",101.538 and 112.181 and 91.251 and 105.094
same,activity at 0.125 µM,"[2]; B. taurus, dose 0.125 µM, Mean of replicates, read-out: Complex I activity, dose-response data",101%
same,"Complex I activity, dose-response data","[2]; B. taurus, dose 0.125 µM, individual replicates (Rep)",111.398 and 110.709 and 87.488 and 92.420
same,activity at 0.313 µM,"[2]; B. taurus, dose 0.313 µM, Mean of replicates, read-out: Complex I activity, dose-response data",112%
same,"Complex I activity, dose-response data","[2]; B. taurus, dose 0.313 µM, individual replicates (Rep)",118.464 and 105.228 and 106.985
same,activity at 0.313 µM,"[2]; B. taurus, dose 0.313 µM, individual replicates (Rep), read-out: Complex I activity, dose-response data",118%
same,activity at 0.625 µM,"[2]; B. taurus, dose 0.625 µM, Mean of replicates, read-out: Complex I activity, dose-response data",103%
same,"Complex I activity, dose-response data","[2]; B. taurus, dose 0.625 µM, individual replicates (Rep)",106.273 and 97.568 and 112.424
same,activity at 0.625 µM,"[2]; B. taurus, dose 0.625 µM, individual replicates (Rep), read-out: Complex I activity, dose-response data",96.1%
same,activity at 1.5 µM,"[2]; B. taurus, dose 1.5 µM, Mean of replicates, read-out: Complex I activity, dose-response data",107%
same,"Complex I activity, dose-response data","[2]; B. taurus, dose 1.5 µM, individual replicates (Rep)",108.615 and 114.555 and 94.027 and 109.488
same,activity at 3 µM,"[2]; B. taurus, dose 3 µM, Mean of replicates, read-out: Complex I activity, dose-response data",104%
same,"Complex I activity, dose-response data","[2]; B. taurus, dose 3 µM, individual replicates (Rep)",105.743 and 114.475 and 92.946 and 103.733
same,activity at 15 µM,"[2]; B. taurus, dose 15 µM, Mean of replicates, read-out: Complex I activity, dose-response data",79.4%
same,"Complex I activity, dose-response data","[2]; B. taurus, dose 15 µM, individual replicates (Rep)",82.876 and 90.607 and 69.676 and 74.384
same,activity at 37.5 µM,"[2]; B. taurus, dose 37.5 µM, Mean of replicates, read-out: Complex I activity, dose-response data",38%
same,"Complex I activity, dose-response data","[2]; B. taurus, dose 37.5 µM, individual replicates (Rep)",49.756 and 32.716 and 30.663
same,activity at 37.5 µM,"[2]; B. taurus, dose 37.5 µM, individual replicates (Rep), read-out: Complex I activity, dose-response data",38.8%
same,activity at 75 µM,"[2]; B. taurus, dose 75 µM, Mean of replicates, read-out: Complex I activity, dose-response data",13.6%
same,"Complex I activity, dose-response data","[2]; B. taurus, dose 75 µM, individual replicates (Rep)",6.165 and 16.790 and 16.865 and 14.475
same,IC50,[2]; heart mitochondria,27.2 µM
same,Log IC50 B. taurus complex I,"[2]; log10 of IC50 in µM, B. taurus mitochondria",1.43 µM
same,LC50,L1 wild-type C. elegans,14.3 µM
"C=C(C)[C@H]1Cc2c(ccc3c2O[C@@H]2COc4cc(OC)c(OC)cc4[C@@H]2C3=O)O1 [Rotenone, reference compound]",CC50,in vitro,< 390 nM
same,viability,"in vitro; dose 0.4 µM, Mean of replicates",33.2%
same,viability,"in vitro; dose 0.8 µM, Mean of replicates",34.5%
same,viability,"in vitro; dose 0.8 µM, individual replicate (Rep)",37.4%
same,viability,"in vitro; dose 3.1 µM, Mean of replicates",47%
same,viability,"in vitro; dose 3.1 µM, individual replicate (Rep)",46.6%
same,viability,"in vitro; dose 6.3 µM, Mean of replicates",32.5%
same,viability,"in vitro; dose 6.3 µM, individual replicate (Rep)",30.9%
same,viability,"in vitro; dose 12.5 µM, Mean of replicates",26.9%
same,viability,"in vitro; dose 12.5 µM, individual replicate (Rep)",27.1%
same,viability,"in vitro; dose 25 µM, Mean of replicates",21.4%
same,viability,"in vitro; dose 25 µM, individual replicate (Rep)",20.1%
same,viability,"in vitro; dose 50 µM, Mean of replicates",20.1%
same,viability,"in vitro; dose 50 µM, individual replicate (Rep)",20.4%
same,LC50,L1 wild-type C. elegans,0.8 µM
